Details of data set [1]: method as in PMID 7937537. The conditions noted are these: healthy volunteers; cited from earlier work.
The target in data set [2] is T1, CYP3A4 (Homo sapiens, UniProt P08684). Set-up: purchased Thermo Fisher Scientific (Waltham, MA, USA); host or cells: baculosomes (baculovirus-infected insect cell microsomes). The conditions noted are these: cited from earlier work; for inhibition of CYP3A4: 1 µM concentration, testosterone as marker substrate; for IC50 / Ki / kinact / kinact/Ki: testosterone (TSN) as marker substrate.
T1 sequence (P08684 whole entry): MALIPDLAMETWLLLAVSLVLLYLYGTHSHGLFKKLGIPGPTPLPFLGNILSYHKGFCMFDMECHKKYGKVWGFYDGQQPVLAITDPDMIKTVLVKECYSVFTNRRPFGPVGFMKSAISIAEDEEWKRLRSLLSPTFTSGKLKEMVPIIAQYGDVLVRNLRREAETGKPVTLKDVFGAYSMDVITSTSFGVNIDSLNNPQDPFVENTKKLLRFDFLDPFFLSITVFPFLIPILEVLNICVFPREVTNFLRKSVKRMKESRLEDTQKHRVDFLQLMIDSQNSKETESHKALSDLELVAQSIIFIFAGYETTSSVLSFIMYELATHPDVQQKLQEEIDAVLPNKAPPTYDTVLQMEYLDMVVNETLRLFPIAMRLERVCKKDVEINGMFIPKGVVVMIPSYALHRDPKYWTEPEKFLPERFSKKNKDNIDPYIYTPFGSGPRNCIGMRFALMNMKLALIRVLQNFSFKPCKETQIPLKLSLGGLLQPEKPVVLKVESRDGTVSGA

The conditions of data set [3]: combination treatment of apigenin and paclitaxel in vivo; cited from earlier work.
Details of data set [4]: method as in PMID 17093006. The conditions noted are these: rats, chrysin 20–100 µM; cited from earlier work.
Data set [5] concerns the target T1, CYP3A4. Briefly: Pseudo-irreversible inhibition assay (incubation, dialysis with or without potassium hexacyanoferrate, testosterone marker). Type of data set: biochemical. Set-up: purchased Thermo Fisher Scientific (Waltham, MA, USA); host or cells: baculosomes (baculovirus-infected insect cell microsomes). The following applies: after incubation and dialysis (Figure 4). How it is done: The aim of this assay is to test out the formation of covalent complexes with ferrous iron (Fe^2+), by assessing a recovery of enzyme activity after dialysis with or without the addition of an oxidant. Three types of experiments were performed for each flavonoid: incubation mixture without flavonoids (control), incubation mixture with flavonoid, and incubation mixture with flavonoid to which oxidant was added after incubation. Each incubation with the inhibitor was performed for 30 min using the same experimental settings as described above (Section 4.2.1). After incubation, the samples were transferred to dialysis cartridges. Aa oxidant—20 mM solution of potassium hexacyanoferrate was added to one of the incubations before dialysis. The cassettes (Slide-A-Lyzer Dialysis Cassettes, Thermo Fisher Scientific, Waltham, MA, USA) were immersed in 50 mM potassium phosphate buffer solution (pH 7.4) for 30 min (dialysis solution was exchanged three times). After dialysis, the samples were transferred from the cassette back to the glass tube, and the residual enzyme activity was assessed using testosterone as a marker substrate (200 μM final concentration). As the NADPH generating system was also dialyzed, it was again added to the incubations to initiate enzyme reaction. […] The samples were analyzed by HPLC.

Data set [6] concerns the target T1, CYP3A4. Briefly: CYP3A4 inhibition and inactivation kinetics, nifedipine oxidation as marker reaction. As to the method: Enzyme incubations were performed in triplicate, with mechanical stirring in a water bath at 37 °C. Aliquots of flavonoids with a final concentration of 1 μM were dissolved in methanol, transferred to glass tubes, and evaporated to dryness, except in control samples without the inhibitor (flavonoid). After the evaporation of the solvent, an incubation mixture was prepared to a volume of 100 μL, consisting of 5 pmol CYP3A4 enzyme, 50 mM potassium phosphate buffer (pH 7.4), and ultrapure water. An NADPH generating system composed of 0.1 M G6P: 10 mg/mL NADP^+: 1000 IU/mL G6PDH = 50:25:1 (v/v/v) was prepared immediately before use. This generating system contains glucose-6-phosphate dehydrogenase that regenerates NADP^+ into NADPH, keeping the concentration of the cytochrome P450 coenzyme (NADPH) constant in the incubation. The addition of the generating system (15% of the volume in the final incubation, v/v) started the reaction. Nifedipine was used to test out the residual enzyme activity at a final concentration of 200 μM. The reaction was stopped using 1 mL of ice-cold 1% solution of formic acid in dichloromethane. The samples were mixed, then centrifuged for 10 min on 1900g (Rotofix 32, Westfalia, Germany). After centrifugation, two layers were formed (water and organic layer). 850 µL of the organic layer was transferred to cuvettes and evaporated. The analyte was then dissolved in 30 µL of methanol. An Agilent Zorbax SB C18 column (4.6 × 250 mm, 3 μm, Agilent Technologies, Santa Clara, CA, USA) was used to analyze the samples by HPLC. The mobile phase was composed of methanol and water in a ratio of 64:36. The analysis was isocratic. The flow was set at 1.0 mL min^−1. The injection volume was set at 10 µL. Nifedipine was used as a marker substrate. The reaction observed was the oxidation of nifedipine. Chromatograms were recorded at 254 nm. The duration of the analysis was set at 25 min. The retention time of nifedipine is 7.1 min and that of oxidized nifedipine is 10.8 min [42]. […] For all the flavonoids, half maximal inhibitory concentration (IC50), constant of inhibition (Ki), constant of inactivation speed (kinact), and inactivation efficacy (kinact/Ki) were determined.
A one-sided t-test would be used to assess the statistical significance in the differences between samples and controls, based on measurements of residual activity. A nonlinear equation was used to calculate the IC50 value. The Michaelis-Menten equation was used to determine the inactivation constant and the inactivation rate of the inhibitor. Statistical processing and graph preparations were done using Program R (The R Project for Statistical Computing, Vienna, Austria) and Microsoft Excel (Microsoft, Redmond, WA, USA).

[7] abbreviates: human, CYP3A4 enzyme, pH 7.4, probe nifedipine (200 µM), nifedipine oxidation.
Setting [8] is: human, CYP3A4 enzyme, pH 7.4, probe nifedipine (200 µM), nifedipine oxidation, kinact/Ki (inactivation efficiency), nifedipine (NIF) as marker substrate, ratio of inactivation rate constant and inhibition constant.
[9] abbreviates: nifedipine (NIF) as marker substrate, ratio of inactivation rate constant and inhibition constant.

SMILES strings stand for the structures. Read-outs that look alike come from different tables or passages of the source.

Results on five compounds are retold here after PMC8158701, “Characterization of the CYP3A4 Enzyme Inhibition Potential of Selected Flavonoids” (Molecules, 2021).

For `CC[C@H]1OC(=O)[C@H](C)[C@@H](O[C@H]2C[C@@](C)(OC)[C@@H](O)[C@H](C)O2)[C@H](C)[C@@H](O[C@@H]2O[C@H](C)C[C@H](N(C)C)[C@H]2O)[C@](C)(O)C[C@@H](C)C(=O)[C@H](C)[C@@H](O)[C@]1(C)O` [erythromycin], in data set [1], the “increase in AUC of cerivastatin” value is 21%.
For the compound `O=c1cc(-c2ccc(O)cc2)oc2cc(O)cc(O)c12` [apigenin], the “inhibition of CYP3A4” value in data set [2] is listed as “statistically significant inhibition”. Also, in data set [3], the “oral bioavailability of paclitaxel” value is given as “increase in oral bioavailability of paclitaxel”.
With `O=c1cc(-c2ccccc2)oc2cc(O)cc(O)c12` [chrysin, 5,7-dihydroxy-flavone], in data set [2], the “inhibition of CYP3A4” value is recorded as “statistically significant inhibition”, the IC50 was 0.6 ± 0.5 µM, the Ki was 0.6 ± 0.3 µM and the maximal inactivation rate constant (kinact) was 0.065 ± 0.005 min⁻¹. For the same compound, the kinact/Ki in data set [2] is 1800 M⁻¹ s⁻¹. For the same compound, in data set [4], the “AUC and peak serum concentration (Cmax) of nitrofurantoin” value is reported as “significantly increased”. Further, the “reduction of enzyme activity” value in data set [5] is recorded as “approximately 99%”. In data set [6], the IC50 was determined as 2.5 ± 0.6 µM and the Ki worked out at 2.4 ± 1 µM. Besides, in data set [6] (human, pH 7.4), the maximal inactivation rate constant (kinact) was 0.00117 s⁻¹ and the “kinact/Ki (inactivation efficiency)” value is 483 M⁻¹ s⁻¹. Also, the kinact/KI in data set [6] (human, pH 7.4, kinact/Ki (inactivation efficiency)) was 500 M⁻¹ s⁻¹.
Regarding `O=C1CC(c2ccccc2)Oc2cc(O)cc(O)c21` (centres unmarked) [pinocembrin, 5,7-dihydroxy-flavanone], in data set [2], the “inhibition of CYP3A4” value is “statistically significant inhibition”, the IC50 was 5 ± 0.6 µM, the Ki was 1.2 ± 0.3 µM and the inactivation rate constant (kinact) is 0.018 ± 0.001 min⁻¹. Further, in data set [2], the kinact/Ki is 250 M⁻¹ s⁻¹. In data set [6], this compound gave an IC50 of 4.3 ± 1.1 µM and a Ki of 5.1 ± 1.6 µM. The inactivation rate constant (kinact) in data set [6] (setting [7]) is 0.000667 s⁻¹. Besides, the kinact/KI in data set [6] (setting [8]) was around 167 M⁻¹ s⁻¹. Also, the “kinact/Ki (inactivation efficiency)” value in data set [6] (setting [9]) stood at 130 M⁻¹ s⁻¹.
Consider `COc1ccc(-c2cc(=O)c3c(O)cc(O)cc3o2)cc1` [acacetin], for which, in data set [2], the “inhibition of CYP3A4” value is on record as “statistically significant inhibition”, the IC50 was 10.9 ± 0.3 µM, the Ki was 6 ± 3 µM and the kinact was 0.036 ± 0.006 min⁻¹. For the same compound, the kinact/Ki in data set [2] was 100 M⁻¹ s⁻¹. For the same compound, in data set [6], 7.5 ± 2.7 µM corresponded to half-maximal inhibition (IC50) and the Ki is 12.1 ± 5.6 µM. Also, in data set [6] (setting [7]), the kinact is 0.00167 s⁻¹. The kinact/KI in data set [6] (setting [8]) is around 167 M⁻¹ s⁻¹. Also, the “kinact/Ki (inactivation efficiency)” value in data set [6] (setting [9]) is 130 M⁻¹ s⁻¹.
